Data: paper PMC7155171, “Probing the Open Global Health Chemical Diversity Library for Multistage-Active Starting Points for Next-Generation Antimalarials” (ACS Infectious Diseases, 2020)
Where two headings read alike, the source gives them in different places.

What was measured:
[1] = tested on: P. falciparum (NF54) stage V gametocytes; test: Stage V gametocyte viability assay (MitoTracker Red CMXRos high content imaging); assay type: cell-based, Plasmodium falciparum; details: Plasmodium falciparum; for inhibition at 2 µM: read-out: Stg V Gam primary screen: Inhibition % (2uM) (n=2)
[2] = biological target: recombinant firefly luciferase (Photinus pyralis, UniProt P08659); test: biochemical; details: dose response; for Emax: maximum inhibition, read-out: rLuc inhibition dose response: Maximum inhibition (%); for IC50: read-out: rLuc inhibition dose response: IC50
[3] = HepG2 cytotoxicity screening (CellTiter-Glo); details: human, uninfected HepG2-A16-CD81 (EGFP) hepatocytes
[4] = tested on: HepG2-A16-CD81 hepatocytes; test: HepG2 cytotoxicity screening (CellTiter-Glo); details: for HepG2 cytotoxicity 12pt dose response: Maximum inhibition (%): 12pt dose response
[5] = tested on: P. berghei liver stage (PbLuc); test: P. berghei luciferase liver stage (PbLuc) assay in HepG2-A16-CD81 hepatocytes; assay type: cell-based, Plasmodium berghei; details: Plasmodium berghei; for IC50: HepG2-A16-CD81, 12pt dose response, read-out: PbLuc 12pt dose response: IC50; for Emax: HepG2-A16-CD81, 48 h, 12pt dose response, maximum inhibition
[6] = NF54, read-out: Stg V Gam dose response IC50 (µM) (n=3), 10-point dose response, n=3, 72 h
[7] = NF54, 72 h, read-out: Stg V Gam dose response IC50 (µM) (n=3), 10-point dose response, n=3, 72 h
[8] = NF54, 72 h, read-out: GAM V IC50, stage V gametocytes, 72 h

Chain of recombinant firefly luciferase (P08659 whole entry): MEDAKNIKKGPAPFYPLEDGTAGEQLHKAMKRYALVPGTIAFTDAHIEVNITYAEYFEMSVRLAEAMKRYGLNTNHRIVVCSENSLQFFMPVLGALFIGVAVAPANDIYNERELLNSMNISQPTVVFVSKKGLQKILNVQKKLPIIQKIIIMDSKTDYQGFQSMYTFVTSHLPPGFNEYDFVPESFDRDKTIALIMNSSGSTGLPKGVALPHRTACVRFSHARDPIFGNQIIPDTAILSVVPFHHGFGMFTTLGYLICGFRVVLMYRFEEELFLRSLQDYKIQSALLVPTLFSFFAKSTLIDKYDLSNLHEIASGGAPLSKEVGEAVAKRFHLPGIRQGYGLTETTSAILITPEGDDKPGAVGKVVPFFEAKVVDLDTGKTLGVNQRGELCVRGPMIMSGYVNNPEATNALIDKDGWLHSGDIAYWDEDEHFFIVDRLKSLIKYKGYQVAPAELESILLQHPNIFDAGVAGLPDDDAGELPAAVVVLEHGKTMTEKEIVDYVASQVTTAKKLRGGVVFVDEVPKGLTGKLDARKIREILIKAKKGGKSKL

SMILES | IC50 [1, 7] [µM] | inhibition at 2 µM ([1]; NF54, 72 h) [%] | Emax [2] [%] | IC50 [2] [µM] | IC50 [3] [µM] | HepG2 cytotoxicity 12pt dose response: Maximum inhibition (%) [4] [%] | IC50 [5] [µM] | Emax [5] [%] | also measured
CCCc1nc2c(c(C)c(C)n2CCN(C)C)c(N)c1CC [DDD01026700, CCCC1=C(CC)C(N)=C2C(C)=C(C)N(CCN(C)C)C2=N1] | – | – | – | – | – | – | – | – | IC50 [1, 6]: 0.97 µM; inhibition at 2 µM ([1]; NF54, Table S6, 2uM, n=2, 72 h): 49.2%
CCc1c(-c2ccccc2)nc2c(c(C)c(C)n2CCN(C)C)c1N [DDD01026714, CCC1=C(N=C2N(CCN(C)C)C(C)=C(C)C2=C1N)C1=CC=CC=C1] | 0.868 | 56.1 | – | – | – | – | – | – | –
CC(C)Nc1nc2c(c(NC3CC3)n1)CCN(C1CCOCC1)CC2 [DDD01029612, CC(C)NC1=NC2=C(CCN(CC2)C2CCOCC2)C(NC2CC2)=N1] | 4.48 | 57 | – | – | – | – | – | – | –
Cc1cccc(CN2Cc3[nH]nc(COCCO)c3C2)n1 [DDD01030906, CC1=CC=CC(CN2CC3=C(C2)C(COCCO)=NN3)=N1] | 1.47 | 82.1 | – | – | – | – | – | – | –
CC(C)Nc1nc2c(c(NC3CC3)n1)CCN(Cc1nccn1C)CC2 [DDD01031405, CC(C)NC1=NC2=C(CCN(CC3=NC=CN3C)CC2)C(NC2CC2)=N1] | 2.65 | 58.7 | – | – | – | – | – | – | –
Cc1cccc(CN2C[C@@H]3COC[C@H](NS(C)(=O)=O)[C@@H]3C2)n1 [DDD01032715, CC1=CC=CC(CN2C[C@@H]3COC[C@H](NS(C)(=O)=O)[C@@H]3C2)=N1] | – | – | – | – | – | – | – | – | IC50 [1, 6]: 1.54 µM; inhibition at 2 µM ([1]; NF54, Table S6, 2uM, n=2, 72 h): 70.6%
Cc1cccc(CN2CCC3(CCN(c4cccnc4)C3=O)C2)n1 (stereo not drawn) [DDD01033290, CC1=CC=CC(CN2CCC3(CCN(C3=O)C3=CC=CN=C3)C2)=N1] | – | – | – | – | – | – | – | – | IC50 [1, 6]: 0.46 µM; inhibition at 2 µM ([1]; NF54, Table S6, 2uM, n=2, 72 h): 75.8%
CO[C@H]1CCN(Cc2cccc(C)n2)[C@@H]2CN(Cc3cccnc3)C[C@H]12 [DDD01036932, CO[C@H]1CCN(CC2=CC=CC(C)=N2)[C@@H]2CN(CC3=CC=CN=C3)C[C@H]12] | 0.276 | 78.9 | – | – | – | – | – | – | –
Cc1cc(C)n(C2=NC(NCCC(C)C)c3c(sc4c3CCCC4)N2)n1 (stereo not drawn) [DDD01037468, CC(C)CCNC1N=C(NC2=C1C1=C(CCCC1)S2)N1N=C(C)C=C1C] | > 10 | – | – | – | – | – | – | – | –
Cc1cc(C)n(C2=NC(NCCCO)c3c(sc4c3CCCC4)N2)n1 (stereo not drawn) [DDD01037469, CC1=NN(C(C)=C1)C1=NC(NCCCO)C2=C(N1)SC1=C2CCCC1] | 0.39 | 91.5 | – | – | – | – | – | – | –
c1ccc(CCN2CCCC2c2cccc(Nc3nccs3)n2)cc1 (stereo not drawn) [DDD01056785, C(CC1=CC=CC=C1)N1CCCC1C1=CC=CC(NC2=NC=CS2)=N1] | 0.392 | 73.4 | – | – | – | – | – | – | IC50 [1, 8]: 0.39 µM
Cc1cnc(Nc2cccc(C3CCCN3Cc3cn(C)nc3C)n2)s1 (stereo not drawn) [DDD01056825, CN1C=C(CN2CCCC2C2=NC(NC3=NC=C(C)S3)=CC=C2)C(C)=N1] | 0.095 | 85.8 | – | – | – | – | – | – | IC50 [1, 8]: 0.09 µM
Cc1ccccc1CN1CCCC1c1cccc(Nc2nccs2)n1 (stereo not drawn) [DDD01057017, CC1=CC=CC=C1CN1CCCC1C1=CC=CC(NC2=NC=CS2)=N1] | 0.261 | – | – | – | – | – | – | – | IC50 [1, 8]: 0.26 µM
Cc1nn(C)cc1CN1CCCC1c1cccc(Nc2nccs2)n1 (stereo not drawn) [DDD01057079, CN1C=C(CN2CCCC2C2=CC=CC(NC3=NC=CS3)=N2)C(C)=N1] | 0.578 | 84.4 | – | – | – | – | – | – | IC50 [1, 8]: 0.58 µM
COc1cccc(CN2CCCC2c2cncc(Nc3nncs3)n2)c1 (stereo not drawn) [DDD01058609, COC1=CC=CC(CN2CCCC2C2=CN=CC(NC3=NN=CS3)=N2)=C1] | 0.534 | 63.5 | – | – | – | – | – | – | IC50 [1, 8]: 0.53 µM
Cc1cccc(CN2CCCC2c2cncc(Nc3nncs3)n2)c1 (stereo not drawn) [DDD01058843, CC1=CC=CC(CN2CCCC2C2=CN=CC(NC3=NN=CS3)=N2)=C1] | 0.319 | 78.8 | – | – | – | – | – | – | IC50 [1, 8]: 0.32 µM
Cc1cccc(CNC(Cc2ccsc2)c2nc(C)c(C)s2)n1 (stereo not drawn) [DDD01059048, CC1=C(C)N=C(S1)C(CC1=CSC=C1)NCC1=CC=CC(C)=N1] | 3.9 | 65.3 | – | – | – | – | – | – | –
Cc1nc(Nc2ncccn2)cc(C2CCCN2CC(C)C)n1 (stereo not drawn) [DDD01061131, CC(C)CN1CCCC1C1=CC(NC2=NC=CC=N2)=NC(C)=N1] | 6.69 | 66.6 | – | – | – | – | – | – | –
Cn1cccc1CNCC1CCCn2cc(C(C)(C)C)nc21 (stereo not drawn) [DDD01062585, CN1C=CC=C1CNCC1CCCN2C=C(N=C12)C(C)(C)C] | 0.741 | 74 | – | – | – | – | – | – | IC50 [1, 8]: 0.74 µM

SMILES | IC50 [1, 7] [µM] | inhibition at 2 µM ([1]; NF54, 72 h) [%] | Emax [2] [%] | IC50 [2] [µM] | IC50 [3] [µM] | HepG2 cytotoxicity 12pt dose response: Maximum inhibition (%) [4] [%] | IC50 [5] [µM] | Emax [5] [%] | also measured
CC(C)(C)c1cn2c(n1)C(CNCc1cnn3ccccc13)CCC2 (stereo not drawn) [DDD01062586, CC(C)(C)C1=CN2CCCC(CNCC3=C4C=CC=CN4N=C3)C2=N1] | 0.11 | 84.4 | – | – | – | – | – | – | –
Cc1cn2c(n1)C(CNCc1cccc3c1OCO3)CCC2 (stereo not drawn) [DDD01073293, CC1=CN2CCCC(CNCC3=CC=CC4=C3OCO4)C2=N1] | 1.62 | 66.7 | – | – | – | – | – | – | –
CN(C)c1nc(N)nc(CN2CCCC2c2cccs2)n1 (stereo not drawn) [DDD01075894, CN(C)C1=NC(N)=NC(CN2CCCC2C2=CC=CS2)=N1] | 2.25 | 66 | – | – | – | – | – | – | –
COCc1noc(-c2ccc(N3CCCCC3CO)nc2)n1 (stereo not drawn) [UCSD-0838277] | – | – | 73.7 | 6.29 | > 25 | 0.196 | < 0.000141 | 82.5 | inhibition at 2 µM [3]: -1.51%
Nc1nccc(N2CCCC(CO)(CCOc3ccccc3)C2)n1 (stereo not drawn) [UCSD-0838947] | – | – | 8.22 | > 25 | > 25 | 51.4 | 6.46 | 89.7 | inhibition at 2 µM [3]: -2.96%
Nc1nc(CCC(=O)N2CCOC(CC3CCCCC3)C2)cs1 (stereo not drawn) [UCSD-0838977] | – | – | 7.71 | > 25 | > 25 | 8.43 | 15 | 93.7 | HepG2 Cytotoxicity primary screen (2uM): % Inhibition [4]: -10.55%
CC(=O)c1ccc(N2CCC(CO)(CCOc3ccccc3)CC2)nc1 [UCSD-0839049] | – | – | 13.2 | > 25 | > 25 | 60.3 | 14.6 | 105 | HepG2 Cytotoxicity primary screen (2uM): % Inhibition [4]: 17.47%
Cc1nc(N2CC[C@@H](NC(=O)c3cnccn3)[C@H](O)C2)c2ccsc2n1 [UCSD-0839060] | – | – | 0.656 | > 25 | > 25 | 48.7 | 10.4 | 90.6 | HepG2 Cytotoxicity primary screen (2uM): % Inhibition [4]: -14.64%
c1ccc(-c2ccc(C3CNCCO3)nc2)cc1 (stereo not drawn) [UCSD-0839460] | – | – | 89.9 | 0.22 | > 25 | -1.08 | < 0.000141 | 80.4 | HepG2 Cytotoxicity primary screen (2uM): % Inhibition [4]: 6.27%
COc1cccc(-c2noc(C3CCN(Cc4cn(C)nc4C)C3)n2)c1 (stereo not drawn) [UCSD-0839537] | – | – | 60.2 | 24 | > 25 | 4.79 | 9.44 | 86.1 | inhibition at 2 µM [3]: 5.3%
COc1cc(CNCc2ccnc(N3CCCCC3)c2)cc(OC)c1 [UCSD-0841255] | – | – | 1.69 | > 25 | > 25 | 36.6 | 11.3 | 85 | HepG2 Cytotoxicity primary screen (2uM): % Inhibition [4]: -2.79%
CC(C)c1n[nH]c(C(=O)Nc2ccccn2)c1Br [UCSD-0842403] | – | – | 97.1 | < 0.0244 | > 50 | 31.1 | < 0.000282 | 97.3 | inhibition at 2 µM [3]: 24.9%
COc1c(C)cnc(CN2CCC(N(C)C(C)C(N)=O)CC2)c1C (stereo not drawn) [UCSD-0844796] | – | – | -2.93 | > 25 | > 25 | -0.307 | 11.7 | 87.4 | HepG2 Cytotoxicity primary screen (2uM): % Inhibition [4]: 1.63%
Cc1noc(NC(=O)c2ccc(OC(F)(F)F)cc2)n1 [UCSD-0844950] | – | – | 29.1 | > 25 | 23.7 | 50.3 | 8.23 | 93.2 | inhibition at 2 µM [3]: 4.58%
Cc1noc(NC(=O)c2ccc(Br)s2)n1 [UCSD-0844983] | – | – | -1.54 | > 25 | > 25 | 28.5 | 14.7 | 88.4 | HepG2 Cytotoxicity primary screen (2uM): % Inhibition [4]: 5.11%
CC(C)N(CC(N)=O)Cc1csc(COc2ccc(F)cc2)n1 [UCSD-0845986] | – | – | 5.14 | > 25 | 23.1 | 68.7 | 14.6 | 97.4 | HepG2 Cytotoxicity primary screen (2uM): % Inhibition [4]: 6.02%
Cc1cc(CN2CCN(C(c3ccccc3)c3ccccc3)CC2)no1 [UCSD-0846071] | – | – | 14.1 | > 25 | > 25 | 4.68 | 8.97 | 104 | inhibition at 2 µM [3]: 0.21%
Cc1ccoc1C(=O)NC1CCN(Cc2csc3c(F)cccc23)CC1 [UCSD-0846562] | – | – | 3.24 | > 25 | > 25 | 25.1 | 11.1 | – | HepG2 Cytotoxicity primary screen (2uM): % Inhibition [4]: -2.96%
